We go through 5 compounds from ChEMBL document CHEMBL3045778, “Production of bacillomycin- and macrolactin-type antibiotics by Bacillus amyloliquefaciens NJN-6 for suppressing soilborne plant pathogens” (2012).

SMILES strings stand for the structures.

For one experiment, the system named is Ralstonia solanacearum. Nature of the experiment: Antibacterial activity against Ralstonia solanacearum race 1 assessed as growth inhibition at 50 uL at 28 degC for 3 days. Format: functional.
In experiment [1] the test system is Fusarium oxysporum f. sp. cubense. Briefly: Antifungal activity against soil-borne Fusarium oxysporum f. sp. cubense race 4 assessed as growth inhibition at 50 uL at 28 degC for 4 days. In kind it is functional.

In the case of `C[C@@H]1CCC/C=C/C=C/[C@H](O)C[C@@H](O)C/C=C\C=C\[C@@H](OC(=O)CC(=O)O)C/C=C/C=C\C(=O)O1` [7-O-MALONYL MACROLACTIN A], the “diameter of the inhibition zone (DIZ)” value in the experiment with Ralstonia solanacearum is given as 1 cm. The same measure, in the same setting: to `C[C@@H]1CCC/C=C/C=C/[C@H](O)C[C@@H](O)C/C=C\C=C\[C@@H](OC(=O)CCC(=O)O)C/C=C/C=C\C(=O)O1` [7-O-SUCCINYL MACROLACTIN A] belongs 1.3 cm. On to `CC(C)CCCCCCCCC1CC(=O)N[C@@H](CC(=O)O)C(=O)N[C@H](Cc2ccc(O)cc2)C(=O)N[C@H](CC(N)=O)C(=O)N2CCC[C@H]2C(=O)N[C@@H](CCC(=O)O)C(=O)N[C@H](CO)C(=O)N[C@@H]([C@@H](C)O)C(=O)N1` (stereo not given in full) [BACILLOMYCIN D(C14)], for which the “diameter of the inhibition zone (DIZ)” value in experiment [1] is 0.6 cm. `CCC(C)CCCCCCCCC1CC(=O)N[C@@H](CC(=O)O)C(=O)N[C@H](Cc2ccc(O)cc2)C(=O)N[C@H](CC(N)=O)C(=O)N2CCC[C@H]2C(=O)N[C@@H](CCC(=O)O)C(=O)N[C@H](CO)C(=O)N[C@@H]([C@@H](C)O)C(=O)N1` (stereo not given in full) [BACILLOMYCIN D(C15)]: the “diameter of the inhibition zone (DIZ)” value in experiment [1] came out at 0.7 cm. Take `C[C@@H]1CCC/C=C/C=C/[C@H](O)C[C@@H](O)C/C=C\C=C\[C@@H](O)C/C=C/C=C\C(=O)O1` [MACROLACTIN A]: in the experiment on Ralstonia solanacearum, the “diameter of the inhibition zone (DIZ)” value stood at 1.2 cm.
